Results reported in patent US9957234B2, “Polymorphs of Ivacaftor, process for its preparation and pharmaceutical composition thereof” (Laurus Labs Limited, priority 2014, dated 2018).
Like-named read-outs stand apart in the source and are kept apart here.

Experiments:
[1] = Saturation solubility studies in various mediums; assay type: physicochemical
Experimental: Saturation solubility studies were conducted in various mediums for ivacaftor polymorph Form-L2 and Amorphous form and the data is given in Table III.

[2] = Chemical and polymorphic stability study of Ivacaftor Form-L2 on storage (HPLC, XRD); assay type: physicochemical
Experimental: Ivacaftor Form L2 is packed in a transparent Low density polyethylene (LDPE) bag with a strip seal, which is again kept in a second transparent low density polyethylene bag with strip seal. The LDPE bag is kept in to a triple laminated sunlight barrier with heat seal followed by in a high density polyethylene container and well closed. The ivacaftor was analyzed using High Performance Liquid Chromatography (“HPLC”) with the conditions are tabulated below: [table]

[3] = stored at 25 ± 2° C./60 ± 5% RH, 1 month
[4] = stored at 25 ± 2° C./60 ± 5% RH, 3 month
[5] = stored at 25 ± 2° C./60 ± 5% RH, Initial
[6] = stored at 40 ± 2° C./75 ± 5% RH, 1 month
[7] = stored at 40 ± 2° C./75 ± 5% RH, 3 month
[8] = stored at 40 ± 2° C./75 ± 5% RH, Initial

**Q.** Which solubility ([1]; 0.001N HCl + 0.7% SLS, pH 3.12) does the source give for `CC(C)(C)c1cc(C(C)(C)C)c(NC(=O)c2c[nH]c3ccccc3c2=O)cc1O` [Amorphous form, N-(2,4-di-tert-butyl-5-hydroxyphenyl)-1,4-dihydro-4-oxoquinoline-3-carboxamide, reference compound] here?
**A.** 230 µg/mL

**Q.** And the solubility ([1]; 0.01N HCl + 0.7% SLS, pH 2.12)?
**A.** 180 µg/mL

**Q.** And the solubility ([1]; 50 mM Phosphate buffer + 0.7% SLS, pH 4.60)?
**A.** 190 µg/mL

**Q.** What about the solubility ([1]; 0.1N HCl + 0.7% SLS, pH 1.10) of the same compound?
**A.** 120 µg/mL

**Q.** And the solubility ([1]; pH 4.5 AB + 0.7% SLS, pH 4.52)?
**A.** 170 µg/mL

**Q.** And the solubility ([1]; pH 5.5 PB + 0.7% SLS, pH 5.53)?
**A.** 180 µg/mL

**Q.** And the solubility ([1]; pH 6.8 PB + 0.7% SLS, pH 6.80)?
**A.** 180 µg/mL

**Q.** Which solubility ([1]; 0.001N HCl + 0.7% SLS, pH 3.12, aqueous with cosolvent or surfactant or cyclodextrin, thermodynamic from solid, 0.001N HCl + 0.7% SLS, pH 3.12, read-out: Solubility) does the source give for `CC(C)(C)c1cc(C(C)(C)C)c(NC(=O)c2c[nH]c3ccccc3c2=O)cc1O` [Ivacaftor Form-L2, N-(2,4-di-tert-butyl-5-hydroxyphenyl)-1,4-dihydro-4-oxoquinoline-3-carboxamide] here?
**A.** 240 µg/mL

**Q.** And the solubility ([1]; 0.01N HCl + 0.7% SLS, pH 2.12, aqueous with cosolvent or surfactant or cyclodextrin, thermodynamic from solid, 0.01N HCl + 0.7% SLS, pH 2.12, read-out: Solubility)?
**A.** 260 µg/mL

**Q.** What about the solubility ([1]; 50 mM Phosphate buffer + 0.7% SLS, pH 4.6, aqueous with cosolvent or surfactant or cyclodextrin, thermodynamic from solid, 50 mM Phosphate buffer + 0.7% SLS, pH 4.60, read-out: Solubility) of the same compound?
**A.** 380 µg/mL

**Q.** What about the solubility ([1]; 0.1N HCl + 0.7% SLS, pH 1.1, aqueous with cosolvent or surfactant or cyclodextrin, thermodynamic from solid, 0.1N HCl + 0.7% SLS, pH 1.10, read-out: Solubility) of the same compound?
**A.** 150 µg/mL

**Q.** What about the solubility ([1]; pH 4.5 AB + 0.7% SLS, pH 4.52, aqueous with cosolvent or surfactant or cyclodextrin, thermodynamic from solid, pH 4.5 AB + 0.7% SLS, pH 4.52, read-out: Solubility) of the same compound?
**A.** 310 µg/mL

**Q.** And the solubility ([1]; pH 5.5 PB + 0.7% SLS, pH 5.53, aqueous with cosolvent or surfactant or cyclodextrin, thermodynamic from solid, pH 5.5 PB + 0.7% SLS, pH 5.53, read-out: Solubility)?
**A.** 260 µg/mL

**Q.** And the solubility ([1]; pH 6.8 PB + 0.7% SLS, pH 6.8, aqueous with cosolvent or surfactant or cyclodextrin, thermodynamic from solid, pH 6.8 PB + 0.7% SLS, pH 6.80, read-out: Solubility)?
**A.** 260 µg/mL

**Q.** And the “Solubility compared to amorphous form” value ([1]; various mediums, Table III)?
**A.** more solubility when compared to amorphous form

**Q.** What about the “Polymorphic and chemical identity on storage” value ([2]; different storage condition (25° C./60% RH and 40° C./75% RH)) of the same compound?
**A.** retained the same polymorphic and chemical identity at least up to three months

**Q.** And the “Any major unknown impurity” value [2, 3]?
**A.** 0.02 % by HPLC

**Q.** And the Description [2, 3]?
**A.** off-white

**Q.** What about the “Solid form by XRD” value [2, 3] of the same compound?
**A.** Complies

**Q.** And the Total impurity [2, 3]?
**A.** 0.02 % by HPLC

**Q.** What about the “Any major unknown impurity” value [2, 4] of the same compound?
**A.** 0.02 % by HPLC

**Q.** And the Description [2, 4]?
**A.** off-white

**Q.** What about the “Solid form by XRD” value [2, 4] of the same compound?
**A.** Complies

**Q.** What about the Total impurity [2, 4] of the same compound?
**A.** 0.02 % by HPLC

**Q.** And the “Any major unknown impurity” value [2, 5]?
**A.** 0.02 % by HPLC

**Q.** What about the Description [2, 5] of the same compound?
**A.** off-white

**Q.** What about the “Solid form by XRD” value [2, 5] of the same compound?
**A.** Complies

**Q.** What about the Total impurity [2, 5] of the same compound?
**A.** 0.03 % by HPLC

**Q.** What about the “Quinolone acid (Imp-3)” value ([2]; stored at 25 ± 2° C./60 ± 5% RH, Initial, LOD 0.006%) of the same compound?
**A.** 0.01 % by HPLC

**Q.** And the “Any major unknown impurity” value [2, 6]?
**A.** 0.01 % by HPLC

**Q.** And the Description [2, 6]?
**A.** off-white

**Q.** What about the “Solid form by XRD” value [2, 6] of the same compound?
**A.** Complies

**Q.** What about the Total impurity [2, 6] of the same compound?
**A.** 0.03 % by HPLC

**Q.** And the “Any major unknown impurity” value [2, 7]?
**A.** 0.01 % by HPLC

**Q.** And the Description [2, 7]?
**A.** off-white

**Q.** And the “Solid form by XRD” value [2, 7]?
**A.** Complies

**Q.** And the Total impurity [2, 7]?
**A.** 0.03 % by HPLC

**Q.** What about the “Any major unknown impurity” value [2, 8] of the same compound?
**A.** 0.02 % by HPLC

**Q.** What about the Description [2, 8] of the same compound?
**A.** off-white

**Q.** What about the “Impurity at RRT 0.59” value [2, 8] of the same compound?
**A.** 0.01 % by HPLC

**Q.** What about the “Solid form by XRD” value [2, 8] of the same compound?
**A.** Complies

**Q.** What about the Total impurity [2, 8] of the same compound?
**A.** 0.03 % by HPLC
